Measured values: the supplement of paper PMC10331698
± gives the standard deviation of the averaged measurements.

Key:
Assay in all cases: level (log10 ratio to DMSO vehicle control); higher = higher biomarker level / cell amount than vehicle control
[1] = compound: O=S(=O)(O)C(F)(F)C(F)(F)C(F)(F)C(F)(F)C(F)(F)C(F)(F)C(F)(F)F [Perfluoroheptanesulfonic acid] (in DMSO)
Protocol: (§1)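 BioMAP Diversity Plus panel of 12 human primary cell co-culture systems (3C, 4H, LPS, SAg, BT, BF4T, BE3C, CASM3C, HDF3CGF, KF3CT, MyoF, Mphg). Compounds were added 1 h before stimulation and left for 24 h (MyoF 48 h; BT 72 h for soluble read-outs or 6 d for IgG). Biomarkers were read by ELISA, cytotoxicity by SRB, PBMC viability and proliferation by Alamar Blue. Each well value was divided by the mean of 8 DMSO control wells on the same plate and log10 transformed; duplicate blinded samples were tested at 4 concentrations.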

[2] = compound: OCC(F)(F)OC(F)(F)C(F)(F)OC(F)(F)C(F)(F)OC(F)(F)CO [1H,1H,11H,11H-Perfluorotetraethylene glycol] (in DMSO)
Protocol: as §1

[3] = compound: NS(=O)(=O)C(F)(F)C(F)(F)C(F)(F)C(F)(F)C(F)(F)C(F)(F)C(F)(F)C(F)(F)F [Perfluorooctanesulfonamide] (in DMSO)
Protocol: as §1

Octafluoroadipic acid = compound: O=C(O)C(F)(F)C(F)(F)C(F)(F)C(F)(F)C(=O)O [Octafluoroadipic acid] (in DMSO)
Protocol: as §1

[4] = compound: C[C@@H]1C[C@H]2[C@@H]3CCC4=CC(=O)C=C[C@]4(C)[C@@]3(F)[C@@H](O)C[C@]2(C)[C@@]1(O)C(=O)COP(=O)(O)O [Dexamethasone sodium phosphate] (in DMSO)
Protocol: as §1

[5] = compound: CO[Si](C)(CCC(F)(F)C(F)(F)C(F)(F)C(F)(F)C(F)(F)C(F)(F)F)OC [Dimethoxymethyl((perfluorohexyl)ethyl)silane] (in DMSO)
Protocol: as §1

Row | Test System | level (log10) ([1]; 1500 nM) | level (log10) ([1]; 4400 nM) | level (log10) ([1]; 13000 nM) | level (log10) ([1]; 40000 nM) | level (log10) ([2]; 6700 nM) | level (log10) ([2]; 20000 nM) | level (log10) ([2]; 60000 nM) | level (log10) ([3]; 6700 nM) | level (log10) ([3]; 20000 nM) | level (log10) (Octafluoroadipic acid; 6700 nM) | level (log10) (Octafluoroadipic acid; 20000 nM) | level (log10) (Octafluoroadipic acid; 60000 nM) | level (log10) ([4]; 1500 nM) | level (log10) ([4]; 4400 nM) | level (log10) ([4]; 13000 nM) | level (log10) ([4]; 40000 nM) | level (log10) ([5]; 6700 nM) | level (log10) ([5]; 20000 nM)
1 | CASM3C:SRB | 0.004 ± 0.0057 | 0.0045 ± 0.00071 | -0.0075 ± 0.0035 | -0.011 ± 0.0014 | -0.0025 ± 0.0064 | -0.008 ± 0.0057 | -0.0275 ± 0.012 | 0.0075 ± 0.011 | -0.0075 ± 0.0021 | -0.006 ± 0.0057 | -0.0025 ± 0.005 | -0.006 ± 0.0057 | -0.0005 ± 0.016 | -0.008 ± 0.017 | -0.013 ± 0.0057 | -0.0115 ± 0.00071 | -0.006 ± 0.0042 | -0.011 ± 0.0028
2 | HDF3CGF:CXCL11/I-TAC | -0.042 ± 0.054 | -0.001 ± 0.0099 | -0.035 ± 0.018 | -0.0525 ± 0.035 | -0.0395 ± 0.053 | -0.139 ± 0.077 | -0.319 ± 0.13 | -0.111 ± 0.013 | -0.492 ± 0.028 | -0.008 ± 0.018 | -0.005 ± 0.0085 | -0.002 ± 0.0042 | 0.0425 ± 0.00071 | 0.079 ± 0.082 | 0.0905 ± 0.012 | 0.0355 ± 0.087 | -0.026 | -0.035 ± 0.014
3 | MyoF:TIMP-1 | 0.021 ± 0.04 | 0.013 ± 0.061 | 0.033 ± 0.054 | 0.11 ± 0.0099 | -0.0035 ± 0.012 | 0.017 | 0.0285 ± 0.005 | -0.007 ± 0.027 | -0.098 ± 0.018 | -0.0155 ± 0.026 | -0.02 ± 0.025 | -0.0485 ± 0.019 | -0.0965 ± 0.047 | -0.0915 ± 0.067 | -0.135 ± 0.11 | -0.12 ± 0.11 | -0.0175 ± 0.0035 | -0.0295 ± 0.018
4 | HDF3CGF:PAI-I | 0.02 ± 0.073 | 0.0135 ± 0.049 | -0.0315 ± 0.046 | -0.0325 ± 0.011 | -0.0265 ± 0.033 | -0.0285 ± 0.013 | -0.036 ± 0.027 | 0.005 ± 0.033 | -0.45 ± 0.26 | -0.008 ± 0.017 | -0.017 ± 0.0071 | 0.0115 ± 0.037 | 0.091 ± 0.011 | 0.0875 ± 0.0035 | 0.072 ± 0.0042 | 0.039 ± 0.0099 | -0.0035 ± 0.0092 | 0.0105 ± 0.015
5 | HDF3CGF:TIMP-1 | -0.004 ± 0.013 | -0.001 ± 0.071 | -0.002 ± 0.045 | 0.012 ± 0.1 | -0.023 ± 0.089 | 0.0015 ± 0.11 | -0.073 ± 0.092 | 0.065 ± 0.068 | -0.138 ± 0.15 | -0.0055 ± 0.03 | 0.022 ± 0.059 | 0.023 ± 0.055 | -0.0755 ± 0.04 | -0.0735 ± 0.053 | -0.112 ± 0.07 | -0.175 ± 0.081 | -0.023 ± 0.027 | -0.0285 ± 0.022
6 | KF3CT:CD54/ICAM-1 | -0.013 ± 0.0085 | 0.001 ± 0.0099 | -0.0085 ± 0.0078 | 0.0005 ± 0.0078 | -0.016 ± 0.0085 | -0.008 ± 0.02 | -0.006 ± 0.035 | 0.0155 ± 0.023 | -0.0235 ± 0.028 | -0.0045 ± 0.0035 | -0.0105 ± 0.0078 | -0.009 ± 0.018 | -0.0125 ± 0.0078 | 0.01 ± 0.018 | -0.012 ± 0.011 | -0.003 ± 0.013 | -0.0135 ± 0.015 | 0.0145 ± 0.0078
7 | CASM3C:CD106/VCAM-1 | 0.0085 ± 0.057 | 0.0125 ± 0.0035 | 0.0055 ± 0.05 | -0.0355 ± 0.0035 | 0.025 ± 0.011 | 0.017 ± 0.011 | 0.032 ± 0.0085 | -0.0185 ± 0.0021 | -0.0405 ± 0.037 | -0.0055 ± 0.011 | -0.011 ± 0.013 | -0.019 | 0.117 ± 0.06 | 0.11 ± 0.049 | 0.0875 ± 0.016 | 0.076 ± 0.054 | -0.0265 ± 0.012 | -0.0155 ± 0.005
8 | KF3CT:IL-1alpha | -0.0015 ± 0.0035 | 0.013 ± 0.0071 | 0 ± 0.0028 | 0.0095 ± 0.013 | 0.009 ± 0.018 | 0.003 ± 0.037 | 0.029 ± 0.034 | 0.074 ± 0.0042 | -0.056 ± 0.02 | -0.005 ± 0.013 | -0.0245 ± 0.011 | 0.004 ± 0.02 | -0.036 ± 0.018 | -0.035 ± 0.0057 | -0.0305 ± 0.00071 | -0.051 ± 0.044 | -0.032 ± 0.024 | -0.0065 ± 0.032
9 | CASM3C:CXCL9/MIG | 0.012 ± 0.035 | -0.008 ± 0.0099 | 0.0015 ± 0.005 | 0.037 ± 0.05 | 0.0135 ± 0.028 | 0.0135 ± 0.013 | 0.0415 ± 0.00071 | -0.0005 ± 0.011 | -0.0305 ± 0.022 | -0.0055 ± 0.0078 | -0.01 ± 0.0071 | 0.001 ± 0.021 | 0.0525 ± 0.037 | 0.038 ± 0.0085 | 0.0335 ± 0.0021 | 0.0595 ± 0.025 | -0.012 ± 0.017 | -0.003 ± 0.013
10 | BE3C:MMP-9 | -0.0015 ± 0.032 | -0.0125 ± 0.081 | -0.025 ± 0.041 | 0.0055 ± 0.04 | 0 ± 0.017 | -0.0345 ± 0.0021 | -0.0795 ± 0.0035 | -0.101 ± 0.016 | -0.131 ± 0.0014 | -0.0065 ± 0.022 | -0.002 ± 0.016 | 0.0065 ± 0.0064 | -0.02 ± 0.0028 | -0.0185 ± 0.013 | -0.013 ± 0.0028 | -0.036 ± 0.0099 | -0.006 ± 0.0042 | -0.017 ± 0.013
11 | KF3CT:CXCL10/IP-10 | 0.006 ± 0.0014 | -0.0045 ± 0.00071 | -0.005 ± 0.0042 | -0.014 ± 0.0028 | -0.0035 ± 0.018 | -0.0065 ± 0.0064 | -0.027 ± 0.016 | -0.021 ± 0.0028 | -0.205 ± 0.0092 | 0 ± 0.0028 | -0.001 ± 0.0028 | -0.001 ± 0.014 | 0.0015 ± 0.0021 | 0.01 ± 0.0071 | 0.005 | 0.0055 ± 0.0064 | -0.0155 ± 0.0064 | -0.008 ± 0.0028
12 | HDF3CGF:CD54/ICAM-1 | 0.0035 ± 0.035 | -0.007 ± 0.028 | 0.0075 ± 0.023 | -0.0165 ± 0.039 | 0.0025 ± 0.018 | -0.019 ± 0.04 | -0.106 ± 0.091 | -0.021 ± 0.0042 | -0.88 ± 0.26 | 0.004 | 0.004 ± 0.0099 | 0.0005 ± 0.016 | 0.004 ± 0.0057 | 0.029 ± 0.042 | 0.01 ± 0.038 | 0.026 ± 0.013 | -0.013 ± 0.0099 | -0.0125 ± 0.012
13 | 3C:CD141/Thrombomodulin | 0.014 ± 0.013 | -0.0085 ± 0.028 | -0.035 ± 0.064 | -0.042 ± 0.028 | -0.0145 ± 0.039 | 0.005 ± 0.028 | 0.051 ± 0.021 | 0.018 ± 0.0099 | 0.107 ± 0.0014 | 0.0125 ± 0.025 | 0.016 ± 0.03 | 0.0195 ± 0.05 | 0.0105 ± 0.074 | -0.015 ± 0.052 | -0.0055 ± 0.04 | -0.045 ± 0.062 | -0.0035 ± 0.0021 | -0.0275 ± 0.025
14 | KF3CT:CXCL8/IL-8 | 0.001 ± 0.014 | -0.0095 ± 0.03 | 0 ± 0.03 | 0.0065 ± 0.022 | -0.0085 ± 0.022 | -0.0255 ± 0.021 | -0.0125 ± 0.011 | -0.0135 ± 0.021 | -0.0525 ± 0.018 | -0.0015 ± 0.015 | 0.0105 ± 0.0092 | 0.012 ± 0.017 | -0.044 ± 0.05 | -0.05 ± 0.02 | -0.045 ± 0.021 | -0.045 ± 0.0028 | -0.016 ± 0.0014 | 0.0035 ± 0.019
15 | lMphg:SRB | -0.01 ± 0.013 | -0.0055 ± 0.011 | 0.0015 ± 0.0035 | 0.003 ± 0.0057 | -0.009 ± 0.011 | -0.024 ± 0.0042 | -0.047 ± 0.0099 | -0.013 | -0.052 ± 0.0085 | -0.023 ± 0.017 | -0.0045 ± 0.00071 | 0.001 ± 0.023 | -0.0045 ± 0.0092 | -0.0125 ± 0.0078 | -0.006 ± 0.0014 | -0.0265 ± 0.0021 | -0.0025 ± 0.0092 | -0.0045 ± 0.00071
16 | KF3CT:CCL2/MCP-1 | -0.0115 ± 0.022 | -0.011 ± 0.011 | 0.0015 ± 0.0021 | 0.0125 ± 0.022 | -0.025 ± 0.024 | -0.044 ± 0.024 | -0.005 ± 0.0042 | 0.025 ± 0.016 | 0.116 ± 0.037 | -0.0165 ± 0.043 | -0.0265 ± 0.00071 | 0.0285 ± 0.026 | -0.0015 ± 0.08 | -0.0565 ± 0.049 | -0.0105 ± 0.0035 | -0.033 ± 0.016 | -0.0325 ± 0.0092 | 0.008 ± 0.059
